From patent US8846656B2, “Tetrahydropyrido-pyridine and tetrahydropyrido-pyrimidine compounds and use thereof as C5a receptor modulators” (Novartis AG, priority 2011, dated 2014) come the findings set out here.

The test system of one assay is CD11b. Nature of the assay: Human whole blood CD11b up-regulation assay. The following applies: 2 nM human C5a, CD15+ granulocytes, read-out: hCD11b IC50. The format is cell-based. In a few lines: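 Heparinized human whole blood (used within 2 h) preincubated 10 min at room temperature with compound in 1% DMSO, then stimulated with 2 nM human C5a for 15 min. After anti-CD15/anti-CD11b staining on ice and RBC lysis, CD11b median fluorescence on 10,000 CD15+ granulocytes measured by flow cytometry.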

The target in a further assay is human C5aR (Homo sapiens (Human), UniProt P21730). As to the kind of experiment: FLIPR assay: inhibition of C5a-mediated calcium mobilization. The format is cell-based. Conditions: stable cell line over expressing human C5aR & Gα15, human C5a at EC50 (0.1-0.25 nM). In a few lines: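 Stable cell line overexpressing human C5aR with Gα15, measured on FLIPR Tetra. Cells loaded 1 h at 37° C with calcium 5 dye and 2.5 mM probenecid in HBSS/20 mM HEPES/0.1% BSA. Compounds preincubated 30 minutes at room temperature in 1% DMSO before C5a.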

Like-named read-outs stand apart in the source and are kept apart here.

Chain of human C5aR (P21730 whole entry): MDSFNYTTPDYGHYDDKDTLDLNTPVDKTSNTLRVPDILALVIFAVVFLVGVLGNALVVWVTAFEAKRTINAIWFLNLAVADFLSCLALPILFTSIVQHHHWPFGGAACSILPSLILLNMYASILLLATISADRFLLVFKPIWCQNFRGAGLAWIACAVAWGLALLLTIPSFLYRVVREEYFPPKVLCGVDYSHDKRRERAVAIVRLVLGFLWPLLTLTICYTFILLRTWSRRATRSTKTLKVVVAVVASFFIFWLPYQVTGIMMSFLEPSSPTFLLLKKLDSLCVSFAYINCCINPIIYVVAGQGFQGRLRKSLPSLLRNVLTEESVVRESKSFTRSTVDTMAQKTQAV

On to `Cc1ccc(C(C)C)cc1N1CCc2nc(-c3c(C)cccc3C)nc(N3C[C@H](C)N(CC(N)=O)C[C@H]3C)c2C1` [Example 28-B], for which the figures for the IC50 in the assay on CD11b and on human C5aR were 107 nM and 3 nM, respectively.
In the case of `Cc1ccc(C(C)C)cc1N1CCc2nc(-c3cccc4[nH]cc(C)c34)nc(N3CCN(CC(N)=O)C[C@H]3C)c2C1` [Example 52-C, (R)-2-(4-(6-(5-Isopropyl-2-methylphenyl)-2-(3-methyl-1H-indol-4-yl)-5,6,7,8-tetrahydropyrido[4,3-d]pyrimidin-4-yl)-3-methylpiperazin-1-yl)acetamide], the IC50 in the assay with CD11b (Homo sapiens) amounted to 178 nM; at human C5aR, 1 nM.
For the compound `CO[C@@H]1CCN(c2nc(-c3c(C)cccc3C)nc3c2CN(c2cc(C4CC4)nn2C)CC3)[C@H](C)C1` [Example 23-D, 6-(3-cyclopropyl-1-methyl-1H-pyrazol-5-yl)-2-(2,6-dimethylphenyl)-4-((2R,4R)-4-methoxy-2-methylpiperidin-1-yl)-5,6,7,8-tetrahydropyrido[4,3-d]pyrimidine], the IC50 stood at 18 nM in the assay with CD11b (Homo sapiens) and 8 nM at human C5aR.
In the same order, the values of `CO[C@@H]1CCN(c2nc(-c3c(C)ccc4[nH]nc(C)c34)nc3c2CN(c2cc(C4(C)COC4)ccc2C)CC3)[C@H](C)C1` [Example 21-R, 2-(3,5-dimethyl-1H-indazol-4-yl)-4-((2R,4R)-4-methoxy-2-methylpiperidin-1-yl)-6-(2-methyl-5-(3-methyloxetan-3-yl)phenyl)-5,6,7,8-tetrahydropyrido[4,3-d]pyrimidine] are 15 nM and 1 nM.
In the same order, the values of `Cc1ccc(C(F)(F)F)cc1N1CCc2nc(-c3cccc4[nH]cc(C)c34)nc(N3CCN(CC(N)=O)[C@H](C)C3)c2C1` [Example 24-G, (R)-2-(2-methyl-4-(2-(3-methyl-1H-indol-4-yl)-6-(2-methyl-5-(trifluoromethyl)phenyl)-5,6,7,8-tetrahydropyrido[4,3-d]pyrimidin-4-yl)piperazin-1-yl)acetamide] are 670 nM and 7 nM.
In the same order, the values of `Cc1ccc(C(C)C)cc1N1CCc2nc(-c3cccc4[nH]cc(C)c34)nc(N3CCN(S(C)(=O)=O)[C@H](C)C3)c2C1` [Example 29, (R)-6-(5-isopropyl-2-methylphenyl)-2-(3-methyl-1H-indol-4-yl)-4-(3-methyl-4-(methylsulfonyl)piperazin-1-yl)-5,6,7,8-tetrahydropyrido[4,3-d]pyrimidine] are 300 nM and 2 nM.
In the case of `Cc1ccccc1N1CCc2nc(-c3c(C)cccc3C)nc(N(C)C)c2C1` [Example 17-T, 2-(2,6-dimethylphenyl)-N,N-dimethyl-6-(o-tolyl)-5,6,7,8-tetrahydropyrido[4,3-d]pyrimidin-4-amine], the IC50 worked out at 451 nM with CD11b (Homo sapiens) and 54 nM on human C5aR.
Consider `CO[C@H]1CCN(c2nc(-c3cccc4[nH]cc(C)c34)nc3c2CN(c2cc(C(C)C)ccc2C)CC3)C[C@H]1C` (racemic) [Example 17-AQ, racemic 6-(5-isopropyl-2-methylphenyl)-4-(4-methoxy-3-methylpiperidin-1-yl)-2-(3-methyl-1H-indol-4-yl)-5,6,7,8-tetrahydropyrido[4,3-d]pyrimidine], for which the half-inhibitory concentration (IC50) with CD11b (Homo sapiens) amounted to 277 nM; on human C5aR, 16 nM.
In the same order, the values of `CO[C@@H]1CCN(c2nc(-c3c(C)ccc4[nH]nc(C)c34)nc3c2CN(c2c(Cl)c(C4CC4)nn2C)CC3)[C@H](C)C1` [Example 55-M, 6-(4-chloro-3-cyclopropyl-1-methyl-1H-pyrazol-5-yl)-2-(3,5-dimethyl-1H-indazol-4-yl)-4-((2R,4R)-4-methoxy-2-methylpiperidin-1-yl)-5,6,7,8-tetrahydropyrido[4,3-d]pyrimidine] are 15 nM and 1 nM.
In the same order, the values of `CO[C@H]1C[C@H]2CC[C@@H](C1)N2c1nc(-c2cccc3[nH]cc(C)c23)nc2c1CN(c1cc(C(C)C)ccc1C)CC2` [Example 17-AS, 6-(5-isopropyl-2-methylphenyl)-4-((3-endo)-3-methoxy-8-azabicyclo[3.2.1]octan-8-yl)-2-(3-methyl-1H-indol-4-yl)-5,6,7,8-tetrahydropyrido[4,3-d]pyrimidine] are 67 nM and 46 nM.
In the same order, the values of `Cc1cc(N2CCc3nc(-c4c(C)cccc4C)nc(N4CCCC(C)(C)C4)c3C2)n(C)n1` [Example 16-O, 6-(1,3-dimethyl-1H-pyrazol-5-yl)-2-(2,6-dimethylphenyl)-4-(3,3-dimethylpiperidin-1-yl)-5,6,7,8-tetrahydropyrido[4,3-d]pyrimidine] are 2250 nM and 90 nM.
Consider `Cc1ccc(C(C)C)cc1N1CCc2nc(-c3cccc4[nH]cc(C)c34)nc(N3C[C@H](C)N(CC(N)=O)C[C@H]3C)c2C1` (racemic) [Example 28-D, Racemic-2-(4-(6-(5-Isopropyl-2-methylphenyl)-2-(3-methyl-1H-indol-4-yl)-5,6,7,8-tetrahydropyrido[4,3-d]pyrimidin-4-yl)-(trans)-2,5-dimethylpiperazin-1-yl)acetamide], for which the IC50 with CD11b (Homo sapiens) was 58 nM; at human C5aR, 4 nM.
`CC(=O)N1CCN(c2nc(-c3cccc4[nH]cc(C)c34)nc3c2CN(c2cc(C4CC4)ccc2C)CC3)[C@H](C)C1` [Example 25-C, (R)-1-(4-(6-(5-cyclopropyl-2-methylphenyl)-2-(3-methyl-1H-indol-4-yl)-5,6,7,8-tetrahydropyrido[4,3-d]pyrimidin-4-yl)-3-methylpiperazin-1-yl)ethanone]: the results for the IC50 in the assay on CD11b (Homo sapiens) and at human C5aR were 183 nM and 5 nM, respectively.
In the same order, the values of `Cc1ccc2[nH]nc(C)c2c1-c1nc2c(c(N3CC(N(C)C)C3)n1)CN(c1c(Cl)c(C3CC3)nn1C)CC2` [Example 69-J, 1-(6-(4-chloro-3-cyclopropyl-1-methyl-1H-pyrazol-5-yl)-2-(3,5-dimethyl-1H-indazol-4-yl)-5,6,7,8-tetrahydropyrido[4,3-d]pyrimidin-4-yl)-N,N-dimethylazetidin-3-amine] are 112 nM and 67 nM.
For the compound `Cc1ccc(C(C)C)cc1N1CCc2nc(-c3c(C)ccc4[nH]nc(C)c34)nc(N3CCC3C)c2C1` (single isomer, unassigned) [Example 65-I, 2-(3,5-dimethyl-1H-indazol-4-yl)-6-(5-isopropyl-2-methylphenyl)-4-(2-methylazetidin-1-yl)-5,6,7,8-tetrahydropyrido[4,3-d]pyrimidine], the results for the IC50 in the assay with CD11b (Homo sapiens) and at human C5aR were 19 nM and 1 nM, respectively.
In the same order, the values of `CO[C@@H]1CCN(c2nc(-c3c(C)ccc4[nH]nc(C)c34)nc3c2CN(c2cc(C(C)C)ccc2C)CC3)C[C@H]1C` [Example 19-AF] are 6 nM and 1 nM.
In the same order, the values of `CO[C@@H]1CCN(c2nc(-c3c(C)ccc4[nH]nc(C)c34)nc3c2CN(c2cc(C(C)C)nn2C)CC3)[C@H](C)C1` [Example 23-G, 2-(3,5-dimethyl-1H-indazol-4-yl)-6-(3-isopropyl-1-methyl-1H-pyrazol-5-yl)-4-((2R,4R)-4-methoxy-2-methylpiperidin-1-yl)-5,6,7,8-tetrahydropyrido[4,3-d]pyrimidine] are 25 nM and 2 nM.
`CO[C@H]1CN(c2nc(-c3c(C)ccc4[nH]nc(C)c34)nc3c2CN(c2cc(C(C)C)ccc2C)CC3)C[C@@H]1N(C)C` (single isomer, unassigned) [Example 65-H, (trans)-1-(2-(3,5-dimethyl-1H-indazol-4-yl)-6-(5-isopropyl-2-methylphenyl)-5,6,7,8-tetrahydropyrido[4,3-d]pyrimidin-4-yl)-4-methoxy-N,N-dimethylpyrrolidin-3-amine]: the results for the IC50 with CD11b (Homo sapiens) and at human C5aR were 56 nM and 4 nM, respectively.
Regarding `CNCCOc1nc(-c2c(C)ccc3[nH]nc(C)c23)nc2c1CN(c1cc(C(C)C)ccc1C)CC2` [Example 63-G, 2-((2-(3,5-dimethyl-1H-indazol-4-yl)-6-(5-isopropyl-2-methylphenyl)-5,6,7,8-tetrahydropyrido[4,3-d]pyrimidin-4-yl)oxy)-N-methylethanamine], the values for the IC50 with CD11b (Homo sapiens) and at human C5aR were 197 nM and 31 nM, respectively.
Take `CO[C@@H]1CCN(c2nc(-c3c(C)cccc3C)nc3c2CN(c2cc(C4(C)COC4)ccc2C)CC3)[C@H](C)C1` [Example 21-K, 2-(2,6-dimethylphenyl)-4-((2R,4R)-4-methoxy-2-methylpiperidin-1-yl)-6-(2-methyl-5-(3-methyloxetan-3-yl)phenyl)-5,6,7,8-tetrahydropyrido[4,3-d]pyrimidine]: the figures for the IC50 in the assay with CD11b (Homo sapiens) and at human C5aR were 11 nM and 2 nM, respectively.
Take `Cc1ccc2[nH]nc(C)c2c1-c1nc2c(c(N3CC[C@H]4OC[C@H]4C3)n1)CN(c1c(Cl)c(C3CC3)nn1C)CC2` (racemic) [Example 69-M, (cis)-3-(6-(4-chloro-3-cyclopropyl-1-methyl-1H-pyrazol-5-yl)-2-(3,5-dimethyl-1H-indazol-4-yl)-5,6,7,8-tetrahydropyrido[4,3-d]pyrimidin-4-yl)-7-oxa-3-azabicyclo[4.2.0]octane]: the values for the IC50 in the assay with CD11b (Homo sapiens) and on human C5aR were 45 nM and 8 nM, respectively.
Take `COc1nc(-c2c(C)ccc3[nH]nc(Cl)c23)nc2c1CN(c1cc(C(C)C)ccc1C)CC2` [Example 32-A, 2-(3-Chloro-5-methyl-1H-indazol-4-yl)-6-(5-isopropyl-2-methylphenyl)-4-methoxy-5,6,7,8 tetrahydropyrido[4,3-d]pyrimidine]: the results for the IC50 in the assay on CD11b (Homo sapiens) and at human C5aR were 63 nM and 6 nM, respectively.

The term IC50 denotes the midpoint of a concentration-inhibition curve.
